We go through 2 compounds from US6107310A, “Heteroarylcarboxamide derivatives for treating CNS disorders” (Knoll Aktiengesellschaft, priority 1995, dated 2000).

What all share (set-up): species or system rat (male Charles River CD)
The target in experiment [1] is T1, 5-HT1A receptors (Rattus norvegicus, UniProt P19327).
T1 construct: Hippocampal tissue from the brains of male Charles River CD rats; from tissue; host or cells: rat hippocampus (male Charles River CD rats), membrane preparation
T1 sequence (P19327 1-422): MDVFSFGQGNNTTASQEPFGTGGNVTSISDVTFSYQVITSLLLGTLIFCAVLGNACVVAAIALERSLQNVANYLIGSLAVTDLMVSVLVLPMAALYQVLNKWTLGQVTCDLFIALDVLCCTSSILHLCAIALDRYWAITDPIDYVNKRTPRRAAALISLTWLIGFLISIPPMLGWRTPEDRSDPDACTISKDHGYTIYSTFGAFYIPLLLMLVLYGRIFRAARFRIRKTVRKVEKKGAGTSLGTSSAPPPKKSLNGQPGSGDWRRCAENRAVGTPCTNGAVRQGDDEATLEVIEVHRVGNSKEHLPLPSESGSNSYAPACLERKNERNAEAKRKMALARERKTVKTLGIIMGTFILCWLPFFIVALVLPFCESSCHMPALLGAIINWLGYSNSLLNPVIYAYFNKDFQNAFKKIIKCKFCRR
The experiment in a line: inhibition of [3H]8-OH-DPAT binding to 5-HT1A receptors in rat hippocampal tissue. The conditions noted are these: rat hippocampus. On the procedure: Hippocampal tissue from the brains of male Charles River CD rats weighing between 150-250 g were homogenised in ice-cold 50 mM Tris-HCI buffer (pH 7.7) when measured at 25° C., 1:40 w/v) and centrifuged at 30,000 g at 4° C. for 10 minutes. The pellet was rehomogenised in the same buffer, incubated at 37° C. for 10 minutes and centrifuged at 30,000 g at 4° C. for 10 minutes. The final pellet was resuspended in 50 mM Tris-HCl buffer (pH 7.7) containing 4 mM CaCl2, 0.1% L-ascorbic acid and 10 μM pargyline hydrochloride (equivalent to 6.25 mg wet weight of tissue/ml) and used immediately in the binding assay. […]
(§1) The filters were washed with ice-cold Tris-HCl buffer and dried. The filters were punched out into vials, scintillation fluid added and radioactivity determined by liquid scintillation counting. The percentage displacement of specific binding of the tritiated ligand was calculated for the single concentration (10^-6 M) of test compound. […] The inhibition coefficient Ki was then calculated using the formula [formula] in which [ligand] is the concentration of the tritiated ligand used and KD is the equilibrium dissociation constant for the ligand.

The target of experiment [2] is T2, D2-like dopamine receptors (Rattus norvegicus, UniProt P61169).
T2 construct: Striatal tissue from the brains of male Charles River CD rats; from tissue; host or cells: rat striatum (male Charles River CD rats), membrane preparation
The experiment in a line: inhibition of tritiated (S)-sulpiride binding to D2-like dopamine receptors in rat striatal tissue. Conditions: rat striatum. As for the experimental part:
Striatal tissue from the brains of male Charles River CD rats weighing between 140-250 g were homogenised in ice-cold 50 mM Tris-HCl buffer (pH 7.7 when measured at 25° C.) and centrifuged at 40,000 g for 10 minutes. The pellet was resuspended in Tris salts buffer (50 mM Tris-HCl buffer containing 120 mM NaCl, 5 mM KCl, 2 mM CaCl2 and 1 mM MgCl2 with the addition of 6 mM ascorbic acid; pH 7.7 when measured at 25° C.), and again centrifuged at 40,000 g for 10 minutes. The final pellet was stored at -80° C. Before each test the pellet was resuspended in Tris salts buffer (equivalent to 2 mg wet weight of tissue/ml). […]
The filters were washed with ice-cold Tris-HCl buffer and dried. The filters were punched out in to vials, scintillation fluid added and were left for about 20 hours before being counted by scintillation spectrophotometry. The percentage displacement of specific binding of the tritiated ligand was calculated for the single concentration (10^-6 M) of test compound. […] The inhibition coefficient Ki was then calculated using the formula [formula] in which [ligand] is the concentration of the tritiated ligand used and KD is the equilibrium dissociation constant for the ligand.

Experiment [3] addresses α1-adrenoceptors. The experiment in a line: inhibition of [7-methoxy-3H]prazosin binding to α1-adrenoceptors in rat whole cortical tissue. Conditions: rat cortex. On the procedure: Whole cortical tissue from the brains of male Charles River CD rats weighing between 150-250 g were homogenised in ice-cold 50 mM Tris-HCl, pH 7.6 (at 25° C.; 1:40 w/v) and centrifuged at 1000 g at 4° C. for 10 minutes. The supernatant was centrifuged at 30,000 g at 4° C. for 10 minutes. The pellet was rehomogenised in 50 mM Tris-HCl, pH 7.6 (1:40 w/v) and centrifuged at 30,000 g at 4° C. for 10 minutes. The final pellet was resuspended in 50 mM Tris-HCl, pH 7.6 (equivalent to 12.5 mg wet weight of tissue/ml) and used immediately in the binding assay. […]
as §1

Where a name gives a salt, the structure may show the parent alone.

T2 sequence (P61169 whole entry): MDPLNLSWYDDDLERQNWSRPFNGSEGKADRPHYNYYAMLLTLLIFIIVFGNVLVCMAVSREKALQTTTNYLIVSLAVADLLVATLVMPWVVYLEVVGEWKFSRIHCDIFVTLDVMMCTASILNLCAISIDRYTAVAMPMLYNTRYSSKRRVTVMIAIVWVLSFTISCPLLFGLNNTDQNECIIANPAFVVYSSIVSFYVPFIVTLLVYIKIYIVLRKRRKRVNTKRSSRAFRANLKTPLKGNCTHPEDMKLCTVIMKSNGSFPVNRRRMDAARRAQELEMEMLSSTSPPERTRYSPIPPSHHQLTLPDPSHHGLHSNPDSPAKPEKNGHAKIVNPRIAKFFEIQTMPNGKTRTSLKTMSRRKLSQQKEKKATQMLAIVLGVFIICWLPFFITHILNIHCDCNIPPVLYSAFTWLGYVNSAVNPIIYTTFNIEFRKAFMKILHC

On to `Nc1ncccc1C(=O)NCC1CCN(C[C@H]2COc3ccc4[nH]ccc4c3O2)CC1` [Example 1, (S)-2-amino-N-{[1-(2,3-dihydro-7H-1,4-dioxino[2,3-e]indol-2-ylmethyl)-4-piperidyl]methyl}pyridine-3-carboxamide], for which the Ki – broadly, a dissociation constant, usually derived from enzyme kinetics or from competition with a known ligand – in experiment [1] ([3H]8-OH-DPAT 2 nM, 25° C., 30 minutes) worked out at 3.1 nM; in experiment [2] (tritiated (S)-sulpiride 1 nM, 4° C., 40 minutes), 7.6 nM; in experiment [3] ([7-methoxy-3H]prazosin 0.1 nM, 30° C., 30 minutes), 12.4 nM.
As to `O=C(NCC1CCN(C[C@H]2COc3ccc4[nH]ccc4c3O2)CC1)c1ccccn1` [Example 2, (S)-N-{[1-(2,3-dihydro-7H-1,4-dioxino[2,3-e]indol-2-ylmethyl)-4-piperidyl]methyl}pyridine-2-carboxamide 1.3 fumarate, 0.25 diethyl ether, 1.0 hydrate], the inhibition at 1 µM in experiment [1] (10^-6 M, [3H]8-OH-DPAT, read-out: % displacement at 10^-6 M (5-HT1A)) came out at 99%; in experiment [2] (10^-6 M, tritiated (S)-sulpiride, read-out: % displacement at 10^-6 M (D2-like)), 122%. Further, the “% displacement at 10^-6 M (α1)” value in experiment [3] (10^-6 M, [7-methoxy-3H]prazosin, 30 min, 1 µM) turned out to be 93%.
